What was measured:
EGFR tyrosine kinase = molecular target: T1, EGFR tyrosine kinase (Homo sapiens, UniProt P00533); test: HTRF assay, inhibition of EGFR tyrosine kinase; format: biochemical; conditions: HTRF method
T1 construct: purchased Sigma Aldrich
Experimental: The activity of inhibitory against the kinase of the test compound is expressed by IC50. The assays are performed by Homogeneous time-resolved fluorescence (HTRF) method which is as follows: a series of synthesized analogues with gradient concentration are incubated for 5 minutes in enzymatic solution with specific concentration (for EGFR) at room temperature. Then proper amount of substrate and ATP are added into the reaction mixture to start the enzyme reaction. The assays of the specific concentration of compound is measured by Flexstation III of Molecular device company after the stop buffer and detecting liquid are added to the enzyme reaction system and hatch at room temperature for 1 hour. And the activity of inhibitory against the kinase of the test compound with different concentration will be calculated, then according to the 4-parameter equation, fit the inhibitory activity of the test compound with different concentration to get the IC50. EGFR is purchased from Sigma Aldrich. The HTRF KinEASE-TK is purchased from Cisbio Bioassays. ATP is purchased from Sigma Aldrich.

[1] = tested on: NCI-H1975 L858R T790M cell; test: Proliferation inhibition, H1975 cells (CellTiter-Glo); format: cell-based; conditions: Homo sapiens, 48 hours
Experimental: (§1) This example is to determine the proliferation inhibitory activity against wide type of high expression cell lines A431 of EGFR and mutant cell lines NCI-H1975^L858RT790M, the proliferation inhibitory activity in cell-based level of compound is expressed by IC50. The test method is as follows: both cell lines are purchased from American type culture collection (ATCC). The cells are seeded in a white and opaque 384-well culture plate with a proper concentration (A431: 20000 cells/ml medium; H1975: 15000 cells/ml medium), cultured at 37° C. with 5% CO2 for 24 hrs, a series of medicine with gradient concentration is added, generally 10 concentrations, cultured for another 48 hours under the previous conditions. The assays of the proliferation inhibitory activity against the A431 and H1975 cell of the test compounds are performed by the CellTiter-Glo Luminescent Cell Viability Assay and calculate the proliferation inhibitory activity of compound with different concentrations. CellTiter-Glo Luminescent Cell Viability Assay is purchased from Promega. Fit the data of proliferation inhibitory activity against A431 and H1975 of compounds with different concentrations with 4-parameter equation.

A431 cell = test: Proliferation inhibition, A431 cells (CellTiter-Glo); format: cell-based; conditions: Homo sapiens, A-431, 48 hours
Experimental: as §1

T1 sequence (P00533 25-1210): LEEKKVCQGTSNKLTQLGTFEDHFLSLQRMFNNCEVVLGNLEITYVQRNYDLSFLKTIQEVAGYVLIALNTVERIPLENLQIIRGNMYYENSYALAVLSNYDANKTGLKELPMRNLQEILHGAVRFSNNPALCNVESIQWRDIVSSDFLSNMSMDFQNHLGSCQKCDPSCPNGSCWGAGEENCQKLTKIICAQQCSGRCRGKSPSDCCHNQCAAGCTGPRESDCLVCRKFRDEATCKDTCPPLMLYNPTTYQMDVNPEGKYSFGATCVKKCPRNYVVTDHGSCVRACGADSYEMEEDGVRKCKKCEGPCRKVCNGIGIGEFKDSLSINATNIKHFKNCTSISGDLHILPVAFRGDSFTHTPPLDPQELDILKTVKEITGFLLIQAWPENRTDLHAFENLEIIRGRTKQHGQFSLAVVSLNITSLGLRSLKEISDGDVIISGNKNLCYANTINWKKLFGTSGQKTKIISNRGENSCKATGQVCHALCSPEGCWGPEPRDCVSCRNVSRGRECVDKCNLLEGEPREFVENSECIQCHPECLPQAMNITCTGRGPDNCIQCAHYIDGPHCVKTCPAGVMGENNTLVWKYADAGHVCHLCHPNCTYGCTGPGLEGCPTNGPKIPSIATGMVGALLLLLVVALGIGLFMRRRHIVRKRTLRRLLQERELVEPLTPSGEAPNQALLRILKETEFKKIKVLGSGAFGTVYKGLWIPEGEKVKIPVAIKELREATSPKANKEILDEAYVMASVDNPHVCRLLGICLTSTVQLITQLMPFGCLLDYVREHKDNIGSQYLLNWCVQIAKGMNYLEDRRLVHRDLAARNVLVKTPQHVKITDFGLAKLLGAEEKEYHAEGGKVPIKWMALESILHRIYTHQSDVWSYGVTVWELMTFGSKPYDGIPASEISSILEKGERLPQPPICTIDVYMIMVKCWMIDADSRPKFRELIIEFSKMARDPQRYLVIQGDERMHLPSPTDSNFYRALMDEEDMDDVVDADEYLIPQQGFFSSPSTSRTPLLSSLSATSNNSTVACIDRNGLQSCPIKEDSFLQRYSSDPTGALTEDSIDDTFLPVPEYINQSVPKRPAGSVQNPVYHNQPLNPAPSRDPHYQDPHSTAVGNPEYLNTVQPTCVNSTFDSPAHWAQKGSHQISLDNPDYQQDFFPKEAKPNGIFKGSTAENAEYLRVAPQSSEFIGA

Row | SMILES | IC50 (EGFR tyrosine kinase) | IC50 [1] | IC50 (A431 cell)
1 | C=C(F)C(=O)Nc1cc2c(Nc3ccc(F)c(Cl)c3)ncnc2cc1OC1CCN(C)C1 (stereo in doubt) [Compound 64, (S)-N-[4-(3-chloro-4-fluoro-phenylamino)-7-(1-methyl-pyrrolidin-3-yloxy)-quinazolin-6-yl]-2-fluoro-acrylamide] | 4.5 nM | 2700 nM | 3600 nM
2 | COc1cc2ncnc(Nc3ccc(F)c(Cl)c3)c2cc1NC(=O)/C(F)=C/CN1CCCCC1 [Compound 8-1, (Z)—N-(4-((3-chloro-4-fluorophenyl)amino)-7-methoxyquinazolin-6-yl)-2-fluoro-4-(piperidin-1-yl)but-2-enamide] | – | 1000 nM | –
3 | COc1cc2ncnc(Nc3ccc(F)c(Cl)c3)c2cc1NC(=O)/C(F)=C\CN1CCCCC1 [Compound 8-2, (E)-N-(4-((3-chloro-4-fluorophenyl)amino)-7-methoxyquinazolin-6-yl)-2-fluoro-4-(piperidin-1-yl)but-2-enamide] | – | – | 2100 nM
4 | CCOc1cc2ncnc(Nc3ccc(OCc4ccccn4)c(Cl)c3)c2cc1NC(=O)/C(F)=C/CN(C)C [Compound 19-1, (Z)-N-(4-((3-chloro-4-(pyridin-2-ylmethoxy)phenyl)amino)-7-ethoxyquinazolin-6-yl)-4-(dimethylamino)-2-fluorobut-2-enamide] | 0.57 nM | – | –
5 | CCOc1cc2ncnc(Nc3ccc(OCc4ccccn4)c(Cl)c3)c2cc1NC(=O)/C(F)=C\CN(C)C [Compound 19-2, (E)-N-(4-((3-chloro-4-(pyridin-2-ylmethoxy)phenyl)amino)-7-ethoxyquinazolin-6-yl)-4-(dimethylamino)-2-fluorobut-2-enamide] | 0.89 nM | 1100 nM | –
6 | O=C(Nc1cc2c(Nc3ccc(F)c(Cl)c3)ncnc2cc1O[C@H]1CCOC1)/C(F)=C/CN1CCOCC1 [Compound 20-1, (S,Z)-N-(4-((3-chloro-4-fluorophenyl)amino)-7-((tetrahydrofuran-3-yl)oxy)quinazolin-6-yl)-2-fluoro-4-morpholinobut-2-enamide] | – | 4300 nM | 12000 nM
7 | O=C(Nc1cc2c(Nc3ccc(F)c(Cl)c3)ncnc2cc1O[C@H]1CCOC1)/C(F)=C\CN1CCOCC1 [Compound 20-2, (S,E)-N-(4-((3-chloro-4-fluorophenyl)amino)-7-((tetrahydrofuran-3-yl)oxy)quinazolin-6-yl)-2-fluoro-4-morpholinobut-2-enamide] | – | 2300 nM | > 100000 nM
8 | CN(C)C/C=C(\F)C(=O)Nc1cc2c(Nc3ccc(F)c(Cl)c3)ncnc2cc1O[C@H]1CCOC1 [Compound 21-1, (S,Z)-N-(4-((3-chloro-4-fluorophenyl)amino)-7-((tetrahydrofuran-3-yl)oxy)quinazolin-6-yl)-4-(dimethylamino)-2-fluorobut-2-enamide] | 0.16 nM | 1200 nM | 98000 nM
9 | CN(C)C/C=C(/F)C(=O)Nc1cc2c(Nc3ccc(F)c(Cl)c3)ncnc2cc1O[C@H]1CCOC1 [Compound 21-2, (S,E)-N-(4-((3-chloro-4-fluorophenyl)amino)-7-((tetrahydrofuran-3-yl)oxy)quinazolin-6-yl)-4-(dimethylamino)-2-fluorobut-2-enamide] | 0.31 nM | 1500 nM | 3100 nM
10 | C=C(F)C(=O)Nc1cc2c(Nc3cc(OC)c(Cl)cc3Cl)ncnc2cc1OCCCN1CCOCC1 [Compound 27, N-[4-(2,4-dichloro-5-methoxy-phenylamino)-7-(3-morpholin-4-yl-propoxy)-quinazolin-6-yl]-2-fluoro-acrylamide] | – | 2700 nM | –
11 | C=C(Cl)C(=O)Nc1cc2c(Nc3ccc(F)c(Cl)c3)ncnc2cc1OCCCN1CCOCC1 [Compound 41, N-[4-(3-chloro-4-fluoro-phenylamino)-7-(3-morpholin-4-yl-propoxy)-quinazolin-6-yl]-2-chloro-acrylamide] | 0.37 nM | – | –
12 | C=C(F)C(=O)Nc1cc2c(Nc3ccc(F)c(Cl)c3)ncnc2cc1OC1CCN(C)CC1 [Compound 49, N-[4-(3-chloro-4-fluoro-phenylamino)-7-(1-methyl-piperidin-4-yloxy)-quinazolin-6-yl]-2-fluoro-acrylamide] | – | 5600 nM | 8600 nM

Reference: patent US9371292B2, “Quinazoline derivative, preparation method therefor, intermediate, composition and application thereof” (SHANGHAI PHARMACEUTICALS HOLDINGS CO., LTD., priority 2011, dated 2016)
